From patent publication US20220403001A1, “PDE5 DERIVED REGULATORY CONSTRUCTS AND METHODS OF USE IN IMMUNOTHERAPY” (Obsidian Therapeutics, Inc., priority 2018, published 2022)
Where “and” joins values, the source holds several entries; their conditions need not be identical. Identical values can stand only once.

How the values were obtained:
[1] = biological target: T1, hPDE5 mutants (Homo sapiens, UniProt O76074); assay: GFP MFI by FACS in HCT116 cells transduced with hPDE5 constructs; type: cell-based
Procedure: (§1) Desirable qualities of a DD include, low expression of the SRE in the absence of ligand and ligand dependent stabilization of the SRE. Constructs were generated using DDs linked to GFP using an SG linker. […] The mean fluorescence intensity (MFI) of GFP was analyzed by FACS. […] Destabilizing mutation coefficient less than 1 are desirable.
(§2) Mean fluorescence intensity (MFI) was measured by FACS. […] Destabilizing mutation coefficient ratios less than 1 are desirable.
(§3) Mean fluorescence intensity (MFI) was measured by FACS. […] Destabilizing mutation co-efficient ratios less than 1 are desirable.
(§4) Mean fluorescence intensity (MFI) was measured by FACS. […] Destabilizing mutation coefficient less than 1 are desirable.
as §4
(§5) Mean fluorescence intensity (MFI) of GFP was measured by FACS.
(§6) Mean fluorescence intensity (MFI) was measured by FACS.
(§7) The media containing the ligand was removed and fresh media without the ligand was added.
(§8) The properties of the DDs were analyzed in the presence and absence of ligands via FACS as previously described.
(§9) GFP fluorescence was measured by FACS.
(§10) The properties of the DDs were analyzed via FACS both in the presence and absence of ligands.
as §9

[2] = tested on: hPDE5 mutants; assay: as above; type: cell-based, human
Procedure: as §1, §2, §3, §4, §4, §5, §6, §7, §8, §9, §10, §9

[3] = biological target: T1, hPDE5 mutants; assay: GFP FACS analysis of hPDE5 mutant library clones in NIH3T3 cell pools; details: for Stabilization ratio: GFP intensity 10 μM vardenafil vs DMSO
Procedure: (§11) These constructs were packaged into lentivirus, transduced into NIH3T3 cells and select stable cell pools were derived as described below. […] Lentiviral stocks were used for transduction of NIH3T3 cells and subsequent cell pool selection. The day before transduction, NIH3T3 cells (1.8×10^6) were seeded in a T-25 flask and allowed to reach 60-70% confluency (˜1 day). The growth medium in the T-25 flask was then replaced with 1 mL virus (quickly thawed in a 37° C. water bath) and 5 μg/mL polybrene. […] Transduction medium was removed the following day and replaced with 5 mL fresh medium. At 48 hr after transduction, the medium was replaced with media containing 1 μg/mL puromycin. This puromycin medium was replaced every 3-4 days until cell pools were established (˜2 weeks).
(§12) The mean fluorescence intensity (MFI) of GFP at 100 μM concentration treatment was set as 100% hPDE5 stabilization effect (HPE), while DMSO treatment was set as 0% effect (ZPE) of hPDE5 stabilization. The effect of the compound on hPDE5 stabilization was calculated based on the following formula: % PDE5 stabilization effect=(MFI-ZPE)/(HPE-ZPE)×100.
(§13) Plots of the % effect versus concentration were generated with Graphpad Prism 5 and EC50 values were calculated using a four-parameter nonlinear regression model.
(§14) Select PDE5 clones from both experiment 1 and experiment 2 were directly compared. […] The stabilization ratio was calculated as the fold change in GFP intensity in ligand treated samples compared to treatment with DMSO (i.e. in the absence of ligand) with the same construct.

[4] = tested on: hPDE5 mutants; assay: as above
Procedure: as §11, §12, §13, §14

[5] = GFP intensity ligand treated vs DMSO, direct comparison of clones

Sildenafil Stabilization ratio ([1]; 10 μM, 48 h, HCT-116): 1.25
Vardenafil Stabilization ratio ([1]; 10 μM, 48 h, HCT-116): 1.15
MFI Sildenafil ([1]; GFP, 10 μM Sildenafil 48 h, HCT-116): 53736
MFI Vardenafil ([1]; GFP, 10 μM Vardenafil 48 h, HCT-116): 49344
Vardenafil Stabilization ratio ([1]; hotspot constructs, 1 μM Vardenafil): 1.83
Sildenafil Stabilization ratio ([1]; hotspot constructs, 10 μM Sildenafil): 0.22
GFP by FACS, Sildenafil 10 μM ([1]; hotspot constructs, HCT116): 219
GFP by FACS, Vardenafil 1 μM ([1]; hotspot constructs, HCT116): 294
Stabilization ratio ([3]; experiment 1): 1.6 and 1.5 and 1.4
Stabilization ratio ([3]; experiment 2): 1.5
Stabilization ratio Sildenafil [3, 5]: 1.05
Stabilization ratio Tadalafil [3, 5]: 1.50
Stabilization ratio Vardenafil [3, 5]: 1.78
Mean fluorescence intensity (MFI) 10 μM VDF ([3]; GFP, cell pools, 10 μM vardenafil 24 hr, experiment 2): 45616 and 43134
Mean fluorescence intensity (MFI) DMSO ([3]; GFP, cell pools, no ligand (DMSO), experiment 2): 30404 and 29006
Fluorescence intensity Sildenafil ([3]; median GFP fluorescence by FACS, 10 μM Sildenafil, direct comparison of clones): 7082
Fluorescence intensity Tadalafil ([3]; median GFP fluorescence by FACS, 10 μM Tadalafil, direct comparison of clones): 10100
Fluorescence intensity Vardenafil ([3]; median GFP fluorescence by FACS, 10 μM Vardenafil, direct comparison of clones): 12000
Fluorescence intensity DMSO ([3]; median GFP fluorescence by FACS, vehicle DMSO (no ligand), direct comparison of clones): 6732
Substance: OT-001075: hPDE5 wildtype construct, catalytic domain linked to AcGFP, control
MFI DMSO ([2]; GFP, DMSO 48 h, HCT-116): 42973
GFP by FACS, Sildenafil 0 μM (DMSO) ([2]; hotspot constructs, HCT116, DMSO control of Sildenafil): 989
GFP by FACS, Vardenafil 0 μM (DMSO) ([2]; hotspot constructs, HCT116, DMSO control of Vardenafil): 161
GFP FACS analysis (MFI) ([4]; DMSO (no ligand), SDF series, experiment 1): 3140
GFP FACS analysis (MFI) ([4]; DMSO (no ligand), TDF series, experiment 1): 9511
GFP FACS analysis (MFI) ([4]; DMSO (no ligand), VDF series, experiment 1): 7545
GFP FACS analysis (MFI) ([4]; SDF 1.235 μM, experiment 1): 5740
Percent stabilization effect ([4]; SDF 1.235 μM, experiment 1): 66.0%
GFP FACS analysis (MFI) ([4]; SDF 3.704 μM, experiment 1): 6480
Percent stabilization effect ([4]; SDF 3.704 μM, experiment 1): 84.7%
GFP FACS analysis (MFI) ([4]; SDF 11.111 μM, experiment 1): 6848
Percent stabilization effect ([4]; SDF 11.111 μM, experiment 1): 94.1%
Percent stabilization effect ([4]; SDF 11.111 μM, experiment 2): 49.7% and 88.2%
GFP FACS analysis (MFI) ([4]; SDF 33.333 μM, experiment 1): 7025
Percent stabilization effect ([4]; SDF 33.333 μM, experiment 1): 98.6%
Percent stabilization effect ([4]; SDF 33.333 μM, experiment 2): 79.3% and 96.0%
Percent stabilization effect ([4]; SDF 100 μM (set as 100%), experiment 1): 100.0%
Percent stabilization effect ([4]; SDF 100 μM (set as 100%), experiment 2): 100.0%
GFP FACS analysis (MFI) ([4]; SDF 100 μM, experiment 1): 7082
GFP FACS analysis (MFI) ([4]; SDF 100 μM, experiment 2): 39638 and 65696
GFP FACS analysis (MFI) ([4]; TDF 1.235 μM, experiment 1): 6211
Percent stabilization effect ([4]; TDF 1.235 μM, experiment 1): −560.3%
GFP FACS analysis (MFI) ([4]; TDF 3.704 μM, experiment 1): 7039
Percent stabilization effect ([4]; TDF 3.704 μM, experiment 1): −419.7%
GFP FACS analysis (MFI) ([4]; TDF 11.111 μM, experiment 1): 7388
Percent stabilization effect ([4]; TDF 11.111 μM, experiment 1): −360.4%
GFP FACS analysis (MFI) ([4]; TDF 11.111 μM, experiment 2): 89646 and 143351
Percent stabilization effect ([4]; TDF 11.111 μM, experiment 2): 101.2% and 136.4%
GFP FACS analysis (MFI) ([4]; TDF 33.333 μM, experiment 1): 7688
Percent stabilization effect ([4]; TDF 33.333 μM, experiment 1): −309.5%
GFP FACS analysis (MFI) ([4]; TDF 33.333 μM, experiment 2): 97813 and 136420
Percent stabilization effect ([4]; TDF 33.333 μM, experiment 2): 110.9% and 123.3%
Percent stabilization effect ([4]; TDF 100 μM (set as 100%), experiment 1): 100.0%
Percent stabilization effect ([4]; TDF 100 μM (set as 100%), experiment 2): 100.0%
GFP FACS analysis (MFI) ([4]; TDF 100 μM, experiment 1): 10100
GFP FACS analysis (MFI) ([4]; TDF 100 μM, experiment 2): 88657 and 124011
GFP FACS analysis (MFI) ([4]; VDF 1.235 μM, experiment 1): 7393
Percent stabilization effect ([4]; VDF 1.235 μM, experiment 1): −3.4%
GFP FACS analysis (MFI) ([4]; VDF 1.235 μM, experiment 2): 32753 and 47543
Percent stabilization effect ([4]; VDF 1.235 μM, experiment 2): 46.3% and 46.8%
GFP FACS analysis (MFI) ([4]; VDF 3.704 μM, experiment 1): 7592
Percent stabilization effect ([4]; VDF 3.704 μM, experiment 1): 1.1%
GFP FACS analysis (MFI) ([4]; VDF 3.704 μM, experiment 2): 36347 and 49859
Percent stabilization effect ([4]; VDF 3.704 μM, experiment 2): 52.0% and 52.6%
GFP FACS analysis (MFI) ([4]; VDF 11.111 μM, experiment 1): 7964
Percent stabilization effect ([4]; VDF 11.111 μM, experiment 1): 9.4%
GFP FACS analysis (MFI) ([4]; VDF 11.111 μM, experiment 2): 39279 and 50082
Percent stabilization effect ([4]; VDF 11.111 μM, experiment 2): 56.6% and 53.2%
GFP FACS analysis (MFI) ([4]; VDF 33.333 μM, experiment 1): 8854
Percent stabilization effect ([4]; VDF 33.333 μM, experiment 1): 29.4%
GFP FACS analysis (MFI) ([4]; VDF 33.333 μM, experiment 2): 44931 and 53578
Percent stabilization effect ([4]; VDF 33.333 μM, experiment 2): 65.5% and 62.0%
Percent stabilization effect ([4]; VDF 100 μM (set as 100%), experiment 1): 100.0%
Percent stabilization effect ([4]; VDF 100 μM (set as 100%), experiment 2): 100.0%
GFP FACS analysis (MFI) ([4]; VDF 100 μM, experiment 1): 12000
GFP FACS analysis (MFI) ([4]; VDF 100 μM, experiment 2): 66821 and 68646
Fold increase in MFI ([4]; after treatment with sildenafil or vardenafil, NIH3T3): ~1.5 fold
